Assay results as given in PMC9092428, “Towards identification of protein–protein interaction stabilizers via inhibitory peptide-fragment hybrids using templated fragment ligation” (RSC Chemical Biology, 2022).
Square brackets hold non-standard residues; d marks the D form. Peptide text beside a SMILES is read from it. * marks the point of attachment. 5FAM = O=C1OC2(c3ccc(O)cc3Oc3cc(O)ccc32)c2ccc(C(=O)*)cc21; pS = N[C@@H](COP(=O)(O)O)C(=O)O; Ahx = NCCCCCC(=O)O

Assays:
Type in all cases: binding
14-3-3η [1] = molecular target: T1, 14-3-3η (Homo sapiens, UniProt Q04917); test: Dynamic ligation screen, FA competition at single concentration; details: 10 μM acetylated hydrazide peptide with 5 eq. aldehyde, 24 h room temperature, 1 μM 14-3-3η, 50 nM hDMX361–374^pSer367*, 50 mM NH4OAc, 10 mM aniline, 1 mM DTT; duplicates
T1 construct: full length proteins were concentrated by centrifugation; His tag (pProEx HTb vector) (N); made in house; host or cells: E. coli BL21(DE3)
T1 sequence (Q04917 1-246): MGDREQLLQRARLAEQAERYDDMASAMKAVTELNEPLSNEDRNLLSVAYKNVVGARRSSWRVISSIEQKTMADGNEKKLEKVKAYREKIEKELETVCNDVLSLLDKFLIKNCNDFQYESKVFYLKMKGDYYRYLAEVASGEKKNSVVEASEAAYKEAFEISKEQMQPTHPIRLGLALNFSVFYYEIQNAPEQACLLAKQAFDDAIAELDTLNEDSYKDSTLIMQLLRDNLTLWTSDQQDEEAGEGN
Method: A fluorescence anisotropy (FA) competition assay was subsequently carried out using conditions previously found suitable for acylhydrazone formation (pH 6.5, 50 mM NH4OAc, 10 mM aniline) with added DTT (1 mM) to supress disulfide formation. hDMX361–369^pSer367Gly-hydrazide was used to compete with a tracer peptide: hDMX361–374^pSer367* for binding to 14-3-3η (Fig S2, ESI ^†). […] Initial attempts to screen in cocktails, established the aldehydes had no affect on their own (Fig. S3, ESI ^†). We then performed an assay where each aldehyde was screened individually with hDMX361–369^pSer367Gly-hydrazide. A decrease in anisotropy can be attributed to a particular hydrazone product, avoiding the additional step of product identification e.g. by HRMS, and, combines the equilibration step for hydrazone formation with 14-3-3η screening (Fig. 2a). […]
Figure S3. […] Aldehydes were assessed as […]
(§1) Screening was performed using fluorescence anisotropy competition assay, in 50 mM NH4Ac pH 6.5 buffer containing 10 mM aniline, 1 mM DTT. […]
Screening was performed using 10 μM acetylated hydrazide peptide mixed with 5 eq. of aldehyde, 1 μM 14-3-3η,. […] After 24 hours, hDMX tracer peptide was added to a concentration of 50 nM to the experiment wells or equal amount of buffers was added to the blanks and the plate was read immediately. […]

14-3-3η [2] = molecular target: T1, 14-3-3η; test: Fluorescence anisotropy (FA) competition assay against tracer hDMX361–374^pSer367*; details: Fig. 2b experiment; hydrazide equilibrated with 5 eq. aldehyde, serially diluted; 50 nM hDMX361–374^pSer367*, 1 μM 14-3-3η, 50 mM NH4OAc, 10 mM aniline, 1 mM DTT, pH 6.5
Method: A fluorescence anisotropy (FA) competition assay was subsequently carried out using conditions previously found suitable for acylhydrazone formation (pH 6.5, 50 mM NH4OAc, 10 mM aniline) with added DTT (1 mM) to supress disulfide formation. hDMX361–369^pSer367Gly-hydrazide was used to compete with a tracer peptide: hDMX361–374^pSer367* for binding to 14-3-3η (Fig S2, ESI ^†). […] Initial attempts to screen in cocktails, established the aldehydes had no affect on their own (Fig. S3, ESI ^†). We then performed an assay where each aldehyde was screened individually with hDMX361–369^pSer367Gly-hydrazide. A decrease in anisotropy can be attributed to a particular hydrazone product, avoiding the additional step of product identification e.g. by HRMS, and, combines the equilibration step for hydrazone formation with 14-3-3η screening (Fig. 2a). […] To confirm the single-concentration results, a competition assay was performed (Fig. 2b). hDMX361–369^pSer367Gly-hydrazide was equilibrated with 5 equivalents of each aldehyde (product formation confirmed by LC-MS, see Fig. S4, ESI ^†), and serially diluted against the tracer peptide (hDMX361–374^pSer367*) and 14-3-3η protein.
Fig. 2 Dynamic ligation screening based on hDMX361–369^pSer367Gly-hydrazide (a) Anisotropy values of individually screened hydrazones (relative to buffer, zero activity negative control in grey), hDMX361–374^pSer367 (blue) and hDMX361–369^pSer367Gly-hydrazide (red) as positive controls with hits (hDMX361–369^pSer367Gly-hydrazone-FC45 and hDMX361–369^pSer367Gly-hydrazone-SIG17) highlighted in orange boxes (10 μM acetylated hydrazide peptide mixed with 5 eq. of aldehyde, 1 μM 14-3-3η, 50 nM hDMX361–374^pSer367*, 50 mM NH4OAc, 10 mM aniline and 1 mM DTT) (b) competition FA curves for hydrazones taken forward as hits (50 nM hDMX361–374^pSer367*, 1 μM 14-3-3η in 50 mM NH4OAc, 10 mM aniline and 1 mM DTT).
Fig. 3 Dynamic ligation screening based on hDMX361–370^pSer367Gly-hydrazide (a) anisotropy values of individually screened hydrazones (relative to buffer, zero activity negative control in grey), hDMX361–374^pSer367 (blue) and hDMX361–370^pSer367Gly-hydrazide (red) as positive controls with hits highlighted in black boxes (10 μM acetylated hydrazide peptide mixed with 5 eq. of aldehyde, 1 μM 14-3-3η, 50 nM hDMX361–374^pSer367*, 50 mM NH4OAc, 10 mM aniline and 1 mM DTT) (b) representative competition FA curves for hydrazones taken forwards as hits (50 nM hDMX361–374^pSer367*, 1 μM 14-3-3η in 50 mM NH4OAc, 10 mM aniline and 1 mM DTT). […]
as §1

14-3-3η [3] = molecular target: T1, 14-3-3η; test: FA direct titration of tracer peptide; details: tracer 50 nM, 10 mM HEPES, 150 mM NaCl, 0.1% Tween 20, 0.1% BSA, pH 7.4; triplicates; read-out: Kd (14-3-3 affinity by FA)
Method: To explore the effect of non-linked fragments, 5 commercially available fragments with similarity to the reduced aldehyde form of COOH4, FC50 and FC32; analogues bearing alcohol or methyl groups in place of the aldehyde (Fig. 3c) were assessed. For consistency a modified tracer peptide was used (hDMX361–370^pSer367Gly* i.e. analogous to the screening peptide but bearing FAM-Ahx). […] Stabilization of the peptide/14-3-3η interaction was observed as the anisotropy increased at the highest fragment concentration, consistent with millimolar affinities (Fig. 3c).
Figure S7. Direct titration of peptide for analysis of fragment stabilizing effects ( hDMX361- […]
(1 picture or pasted object on this page, not shown here)
Peptides were cleaved and side-chain deprotected using ‘Reagent K’ […]
Direct titration assay: All assays were performed in 384 well plates (each experiment was run in triplicates) and data were collected by Perkin Elmer EnVision 2013 plate reader with excitation at 480 nm (30 nm bandwidth), polarised dichroic mirror at 505 nm and emission at 535 nm (40 nm bandwidth, S and P polarised). […] A ½ fold dilution series was performed in the titration, with plates read after 30 min, 4 h and 20-24 h. […]
Collected data were processed in Microsoft Excel using the equations bellow. Total intensity I and anisotropy r were calculated using Equations 1 and 2 for each well. […]

| SMILES | Anisotropy of individually screened hydrazones relative to controls (hit call) (14-3-3η [1]) | IC50 (14-3-3η [2]) [µM] | Kd (14-3-3η [3]) [µM] |
| --- | --- | --- | --- |
| CC[C@H](C)[C@H](NC(=O)[C@@H](NC(=O)[C@H](CCCNC(=N)N)NC(=O)[C@H](CCCNC(=N)N)NC(=O)[C@H](CS)NC(=O)[C@H](CC(=O)O)NC(C)=O)[C@@H](C)O)C(=O)N[C@@H](COP(=O)(O)O)C(=O)N[C@@H](C)C(=O)N1CCC[C@H]1C(=O)NCC(=O)N/N=C/c1scc(Br)c1Br [hDMX361–369^pSer367Gly-hydrazone-SIG17] (HELM PEPTIDE1{[ac].D.C.R.R.T.I.[O=C([C@H](COP(=O)(O)O)N[*:1])[*:2]].A.P.G.[Brc1csc(/C=N/N[*:1])c1Br]}$$$$V2.0) | hits | 13.7 ± 0.5 | – |
| CC[C@H](C)[C@H](NC(=O)[C@@H](NC(=O)[C@H](CCCNC(=N)N)NC(=O)[C@H](CCCNC(=N)N)NC(=O)[C@H](CS)NC(=O)[C@H](CC(=O)O)NC(=O)CCCCCNC(=O)c1ccc2c(c1)C(=O)OC21c2ccc(O)cc2Oc2cc(O)ccc21)[C@@H](C)O)C(=O)N[C@@H](COP(=O)(O)O)C(=O)N[C@@H](C)C(=O)N1CCC[C@H]1C(=O)N[C@H](C(=O)NCC(N)=O)C(C)C [hDMX361–370^pSer367Gly*] ({5FAM-Ahx}-DCRRTI[pS]APVG-NH2) | – | – | 0.172 ± 0.0093 |
